“And” between values parts separate entries of the source, which are not always exact repeats. Equal entries are not always repeated. “Also recorded” adds a separate entry of the source. Where two headings read alike, the source gives them in different places.
Tests used:
[1] = biological target: T1, Uba1 (Homo sapiens, UniProt P22314); assay: Uba1~ubiquitin thioester formation (Uba1, GST-ubiquitin, ATP; silver-stained gels); type: biochemical; conditions: for Activity in the Uba1~ubiquitin thioester formation assay (in words): up to 500 μM
T1 construct: His; host or cells: E. coli BL21(DE3)
T1 sequence (P22314 1-1058): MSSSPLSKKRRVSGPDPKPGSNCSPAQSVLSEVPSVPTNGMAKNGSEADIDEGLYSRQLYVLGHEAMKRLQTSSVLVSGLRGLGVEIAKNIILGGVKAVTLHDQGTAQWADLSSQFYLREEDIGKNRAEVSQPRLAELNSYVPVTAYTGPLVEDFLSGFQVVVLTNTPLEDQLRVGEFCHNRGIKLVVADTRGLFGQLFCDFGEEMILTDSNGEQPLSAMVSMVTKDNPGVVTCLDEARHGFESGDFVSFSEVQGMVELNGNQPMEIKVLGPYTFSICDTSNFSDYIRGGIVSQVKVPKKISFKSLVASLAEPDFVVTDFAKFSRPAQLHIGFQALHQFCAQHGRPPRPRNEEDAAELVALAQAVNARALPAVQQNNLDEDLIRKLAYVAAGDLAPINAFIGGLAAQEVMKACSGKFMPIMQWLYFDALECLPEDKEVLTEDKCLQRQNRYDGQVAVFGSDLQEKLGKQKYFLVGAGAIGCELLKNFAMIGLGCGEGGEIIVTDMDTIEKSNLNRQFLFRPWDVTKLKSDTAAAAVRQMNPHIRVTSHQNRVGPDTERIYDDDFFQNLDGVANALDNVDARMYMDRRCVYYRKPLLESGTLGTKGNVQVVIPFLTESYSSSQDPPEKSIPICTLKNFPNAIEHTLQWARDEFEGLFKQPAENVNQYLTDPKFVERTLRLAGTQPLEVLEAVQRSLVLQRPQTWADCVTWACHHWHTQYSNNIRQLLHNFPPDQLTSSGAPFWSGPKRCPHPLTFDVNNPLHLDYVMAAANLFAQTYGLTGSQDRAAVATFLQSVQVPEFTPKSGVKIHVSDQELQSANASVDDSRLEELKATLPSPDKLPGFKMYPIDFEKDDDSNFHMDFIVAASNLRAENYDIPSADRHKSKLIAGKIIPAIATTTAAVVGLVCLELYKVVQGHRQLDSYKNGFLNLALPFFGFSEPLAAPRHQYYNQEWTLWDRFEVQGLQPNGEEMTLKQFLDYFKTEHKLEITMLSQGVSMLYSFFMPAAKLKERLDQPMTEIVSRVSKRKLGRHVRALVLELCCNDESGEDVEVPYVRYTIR

[2] = test system: HEK 293FT cells; assay: Cell survival, Alamar Blue (resazurin) assay; type: cell-based, human; conditions: for IC50 / Activity on cell viability / survival (in words): 24-h treatment; for IC50: 2% DMSO, read-out: IC50 for inhibition of cell survival
Method: For cellular experiments, HEK 293FT cells (a fast-growing SV40 large T antigen-transformed strain of HEK 293 cells designed for enhanced transgene expression in transient transfections) were grown in growth medium consisting of Dulbecco’s modified Eagle’s medium (DMEM; Sigma-Aldrich), supplemented with 10% fetal bovine serum (FBS; Gibco) in a humified cell culture incubator at 37 °C with 5% CO2.
(§1) HEK 293FT cells were evaluated for survival following compound treatments by the Alamar Blue (resazurin) assay. Cells were plated onto 96-well plates at 4.8 × 10^4 cells/well in 0.5% FBS-containing DMEM at 37 °C and 5% CO2. After 24 h, compounds were added. After 24-h treatment, resazurin was added to a final concentration of 0.12 mM. Following 4-h incubation, conversion to the resorufin product was measured (with excitation at 542 nm and emission at 590 nm) on a fluorescence plate reader.

[3] = test system: PCNA ubiquitination (RFC, Uba1, Rad6, Rad18, PCNA, ubiquitin); assay: Reconstituted PCNA ubiquitination cascade, Western blot quantitation; type: biochemical, human; conditions: for IC50: 15 min preincubation, 2 h with ATP, 2% DMSO, nonlinear regression, read-out: IC50 for inhibition of PCNA ubiquitination; for Activity in the PCNA ubiquitination assay (in words): up to 500 μM
Method: The PCNA loading and ubiquitination cascade was reconstituted in 96-well white round-bottom polypropylene plates (Greiner) in a buffer consisting of 40 mM Tris-HCl, pH 7.5, 8 mM MgCl2, and 10% glycerol with 2.5 nM nicked circular pUC19, 50 nM RFC, 50 nM Uba1, 250 nM Rad6–Rad18 dimer, 50 nM FLAG-PCNA, and 250 nM biotin-ubiquitin (final concentrations). Compounds were added to the samples, with preincubation for 15 min at 25 °C before addition of ATP to a final concentration of 2 mM (to initiate the reaction cascade), followed by incubation for 2 h at 25 °C. The reactions were then terminated by addition of EDTA to 20 mM for Alpha assays or Laemmli sample buffer for Western blot analyses. For Alpha assays, reaction mixtures were diluted in buffer containing streptavidin-conjugated donor beads and anti-FLAG antibody-conjugated acceptor beads in opaque white microplates under low-light conditions, as recommended by the Alpha bead manufacturer, PerkinElmer. The plates were read on a Tecan Spark microplate reader at 23 °C. For Western blot analyses, FLAG-PCNA was detected with anti-FLAG antibody, and quantitations from the Western blot images was performed with NIH ImageJ software[74] and then analyzed with GraphPad Prism software.

[4] = test system: ubiquitin-overexpressing HEK 293 cells; assay: Cell survival in ubiquitin-overexpressing cells vs empty vector-transfected control cells; type: cell-based, human; conditions: 24-h treatment at IC50 of each compound (Myr 3 mM, DM 650 μM; puromycin 1 and 2 μM)
Method: as §1
(§2) HEK 293FT cells (1.5 × 10^6) were plated onto 6-cm plates in 5 ml of DMEM with 10% FBS and allowed to grow for 24 h at 37 °C and 5% CO2. For transfections, 6 μg of plasmid DNA (empty vector containing FLAG-tag sequence only, FLAG-Uba1, or FLAG-ubiquitin) and 10 μl of Lipofectamine 2000 were used for each plate. The DNA and the reagent were diluted separately in 500 μl of Opti-MEM (Gibco), and each was mixed by vortexing. After 5-min incubation, the two tubes were combined and incubated for another 20 min. Prior to adding the transfection solution to the cells, the medium was replaced with 4 ml of Opti-MEM. The transfection solution was then added dropwise. After 3-h incubation, the medium was changed to 0.5% FBS-containing DMEM, and the cells were plated for cell survival experiments, as above.

[5] = test system: Uba1-overexpressing HEK 293 cells; assay: Cell survival in Uba1-overexpressing cells vs empty vector-transfected control cells; type: cell-based, human; conditions: 24-h treatment at IC50 of each compound (Myr 3 mM, DM 650 μM; puromycin 1 and 2 μM)
Method: as §1, §2

[6] = Uba1 preincubated with compound 15 min, 2 h reaction, 2% DMSO, read-out: IC50 for inhibition of Uba1~ubiquitin thioester formation

| Structure (SMILES) | IC50 [1, 6] | Activity in the Uba1~ubiquitin thioester formation assay (in words) [1] | Activity in the cell viability experiments at 500 μM ([2]; 24 h) | IC50 ([2]; Homo sapiens, HEK293FT, 24 h) [µM] | IC50 [3] [µM] | Activity in the PCNA ubiquitination assay (in words) [3] | Effect of ubiquitin overexpression on cell survival [4] | Activity on cell viability / survival (in words) [2] | IC50 [2] [µM] | Effect of Uba1 overexpression on cell survival [5] | IC50 ([1]; Fig. 6, unit printed as M, read-out: IC50 (Uba1~Ub)) [µM] |
| --- | --- | --- | --- | --- | --- | --- | --- | --- | --- | --- | --- |
| Oc1cc(O)c2c(c1)O[C@H](c1ccc(O)c(O)c1)[C@@H](O)C2 [Cat, (+)-Catechin] | > 500 µM | inactive | only very weak activity | > 500 | > 500 | inactive |  |  |  |  |  |
| CCCCCCCCCCCCOC(=O)c1cc(O)c(O)c(O)c1 [DG, n-Dodecyl gallate] | 35 µM | active |  | 33.5 | 1.63 | active | Protects | active | 33.5 | Does not protect |  |
| O=C1c2c(O)cc(O)cc2O[C@H](c2cc(O)c(O)c(O)c2)[C@H]1O [DM, (+)-Dihydromyricetin] | 14.3 µM |  | only very weak activity | > 500 | 66.4 | active | Protects | very weak activity |  | Does not protect | 14.3 |
| Oc1cc(O)c2c(c1)O[C@H](c1ccc(O)c(O)c1)[C@H](O)C2 [EC, (–)-Epicatechin] | > 500 µM | inactive | only very weak activity | > 500 | > 500 | inactive |  |  |  |  |  |
| O=C(O[C@@H]1Cc2c(O)cc(O)cc2O[C@@H]1c1ccc(O)c(O)c1)c1cc(O)c(O)c(O)c1 [ECG, (–)-Epicatechin-3-gallate] | 4.2 µM and 4.22 µM | active |  | 262 | 0.537 | active | mitigated; also recorded: Protects | active | 262 | mitigated; also recorded: Protects |  |
| Oc1cc(O)c2c(c1)O[C@H](c1cc(O)c(O)c(O)c1)[C@H](O)C2 [EGC, (–)-Epigallocatechin] | 7.6 µM and 7.58 µM | weak activity |  | 176 | 43.3 | weak activity | not affected; also recorded: Does not protect | measurable cytostatic/cytotoxic activity | 176 | not affected; also recorded: Does not protect |  |
| O=C(O)c1cc(O)c(O)c(O)c1 [GA, Gallic acid] | > 500 µM | inactive |  | 241 | > 500 | inactive | not mitigated; also recorded: Does not protect | little effects | 241 | not mitigated; also recorded: Does not protect |  |
| CCCCCCCCOC(=O)c1cc(O)c(O)c(O)c1 [OG, n-Octyl gallate] | 80.6 µM | active |  | 38.7 | 10.3 | active | Protects | active |  | Protects |  |
| CCCOC(=O)c1cc(O)c(O)c(O)c1 [PG, n-Propyl gallate] | > 500 µM | inactive |  | 176 | > 500 | inactive | not mitigated; also recorded: Does not protect | little effects | 176 | not mitigated; also recorded: Does not protect |  |
| COc1ccc(C[C@H](N)C(=O)N[C@H]2[C@@H](O)[C@H](n3cnc4c(N(C)C)ncnc43)O[C@@H]2CO)cc1 [puromycin, reference compound] |  |  |  |  |  |  | no differences |  |  | no differences |  |

Source: PMC6728334 (Scientific Reports, 2019)
